Measurements reported in US12643886B2 (Ontario Institute for Cancer Research (OICR), priority 2021, dated 2026).

Assays:
Type in all cases: biochemical
[1] = target: T1, NUAK2 (h) (Homo sapiens, UniProt Q9H093); experiment: NUAK2 enzymatic assay (radiometric, Eurofins); details: full-length recombinant enzyme
T1 construct: This assay was done radiometrically using full-length, recombinant enzyme; purchased Eurofins
T1 sequence (Q9H093 1-628): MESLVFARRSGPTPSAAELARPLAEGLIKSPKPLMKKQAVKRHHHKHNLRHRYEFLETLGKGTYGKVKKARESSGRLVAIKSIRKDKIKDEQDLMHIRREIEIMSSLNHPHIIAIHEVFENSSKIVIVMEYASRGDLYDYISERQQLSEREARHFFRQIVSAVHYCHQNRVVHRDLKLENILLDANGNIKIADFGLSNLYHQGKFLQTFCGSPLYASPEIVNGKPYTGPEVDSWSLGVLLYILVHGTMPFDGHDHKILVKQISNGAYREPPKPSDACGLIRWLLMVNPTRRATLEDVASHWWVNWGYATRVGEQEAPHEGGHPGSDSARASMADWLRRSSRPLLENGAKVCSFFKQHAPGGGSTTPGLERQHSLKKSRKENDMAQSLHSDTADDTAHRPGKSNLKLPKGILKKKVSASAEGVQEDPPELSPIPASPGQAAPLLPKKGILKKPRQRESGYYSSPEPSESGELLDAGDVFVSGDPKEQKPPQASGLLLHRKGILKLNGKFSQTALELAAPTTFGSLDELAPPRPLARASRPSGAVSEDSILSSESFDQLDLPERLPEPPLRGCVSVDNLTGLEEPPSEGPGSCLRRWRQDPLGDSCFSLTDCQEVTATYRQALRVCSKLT
Description: (§1) To identify small molecule NUAK inhibitors, a biochemical NUAK2 enzymatic assay were outsourced to Eurofins. This assay was done radiometrically using full-length, recombinant enzyme. NUAK2 (h) was incubated with 8 mM MOPS pH 7.0, 0.2 mM EDTA, 300 μM […], 10 mM magnesium acetate and […] (specific activity and concentration as required). The reaction was initiated by the addition of the Mg/ATP mix. After incubation for 40 minutes at room temperature, the reaction was stopped by the addition of phosphoric acid to a concentration of 0.5%. 10 μL of the reaction was then spotted onto a P30 filtermat and washed four times for 4 minutes in 0.425% phosphoric acid and once in methanol prior to drying and scintillation counting. Compounds were routinely counter-screened against Aurora A and NUAK1. The results are shown in Table 1 where IC50's are reported in the following ranges: A: 0.1-10 nM; B: 11-100 nM; C: 101-1000 nM; D: >1000 nM for the compounds of Formula (I)

[2] = target: T2, NUAK1 (Homo sapiens, UniProt O60285); experiment: Counter-screen against NUAK1
T2 sequence (O60285 1-661): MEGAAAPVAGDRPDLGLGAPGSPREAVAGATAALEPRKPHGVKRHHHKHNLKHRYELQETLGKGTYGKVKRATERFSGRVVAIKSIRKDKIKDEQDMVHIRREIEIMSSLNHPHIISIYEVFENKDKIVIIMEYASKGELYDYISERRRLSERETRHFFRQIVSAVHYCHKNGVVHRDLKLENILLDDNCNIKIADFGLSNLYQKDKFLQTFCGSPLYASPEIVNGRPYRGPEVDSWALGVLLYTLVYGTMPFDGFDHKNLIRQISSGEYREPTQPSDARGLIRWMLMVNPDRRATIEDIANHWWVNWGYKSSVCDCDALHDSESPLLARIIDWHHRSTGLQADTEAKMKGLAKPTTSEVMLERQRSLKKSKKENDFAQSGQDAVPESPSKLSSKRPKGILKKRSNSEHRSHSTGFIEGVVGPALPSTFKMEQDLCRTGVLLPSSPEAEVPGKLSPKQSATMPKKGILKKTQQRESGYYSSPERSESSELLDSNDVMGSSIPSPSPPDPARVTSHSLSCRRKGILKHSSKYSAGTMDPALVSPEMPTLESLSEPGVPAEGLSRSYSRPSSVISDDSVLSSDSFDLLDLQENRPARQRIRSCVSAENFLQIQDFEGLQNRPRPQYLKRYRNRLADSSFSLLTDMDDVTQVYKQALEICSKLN
Description: as §1

[3] = target: T3, Aurora A (Homo sapiens, UniProt O14965); experiment: Counter-screen against Aurora A; details: read-out: AUR-A (IC50)
T3 sequence (O14965 1-403): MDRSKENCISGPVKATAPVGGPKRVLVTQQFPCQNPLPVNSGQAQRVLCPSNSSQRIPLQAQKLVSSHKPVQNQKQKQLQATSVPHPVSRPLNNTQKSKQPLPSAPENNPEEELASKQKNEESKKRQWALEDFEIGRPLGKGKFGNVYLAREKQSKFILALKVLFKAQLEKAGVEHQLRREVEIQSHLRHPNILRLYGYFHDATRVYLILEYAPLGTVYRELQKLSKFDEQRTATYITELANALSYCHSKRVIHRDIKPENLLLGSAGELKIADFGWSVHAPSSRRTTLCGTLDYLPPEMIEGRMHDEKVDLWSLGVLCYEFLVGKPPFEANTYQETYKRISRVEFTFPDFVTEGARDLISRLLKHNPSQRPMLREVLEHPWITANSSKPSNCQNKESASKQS
Description: as §1

| IC50 [1] [nM] | IC50 [2] [nM] | IC50 [3] [nM] | SMILES |
| --- | --- | --- | --- |
| 11 to 100 | 11 to 100 | 101 to 1000 | COc1c(Nc2ncc(Cl)c(Nc3cccc4c3C(=O)NC4)n2)ccc(N2C[C@H]3CN(C)C[C@H]3C2)c1F [Compound I-29, 7-((5-chloro-2-((3-fluoro-2-methoxy-4-((3aR,6aS)-5-methylhexahydropyrrolo[3,4-c]pyrrol-2(1H)-yl)phenyl)amino)pyrimidin-4-yl)amino)isoindolin-1-one] |
| 0.1 to 10 | 11 to 100 | 101 to 1000 | CC(C)(C)N1CCN(C2CCN(c3ccc(Nc4ncc(C(F)(F)F)c(Nc5cccc6c5C(=O)NC6)n4)c(OC(F)F)c3)CC2)CC1 [Compound I-31, 7-((2-((4-(4-(4-(tert-butyl)piperazin-1-yl)piperidin-1-yl)-2-(difluoromethoxy)phenyl)amino)-5-(trifluoromethyl)pyrimidin-4-yl)amino)isoindolin-1-one] |
| 11 to 100 | 0.1 to 10 | 11 to 100 | CN1CCN(c2ccc(Nc3ncc(C(F)(F)F)c(Nc4cccc5c4C(=O)NC5)n3)c(Cl)c2F)CC1 [Compound I-36, 7-((2-((2-chloro-3-fluoro-4-(4-methylpiperazin-1-yl)phenyl)amino)-5-(trifluoromethyl)pyrimidin-4-yl)amino)isoindolin-1-one] |
| 0.1 to 10 | 11 to 100 | 11 to 100 | COc1c(Nc2ncc(C(F)(F)F)c(Nc3cccc4c3C(=O)NC4)n2)ccc(N2CCC(N3CCCC3)CC2)c1F [Compound I-37, 7-((2-((3-fluoro-2-methoxy-4-(4-(pyrrolidin-1-yl)piperidin-1-yl)phenyl)amino)-5-(trifluoromethyl)pyrimidin-4-yl)amino)isoindolin-1-one] |
| 11 to 100 | 11 to 100 | 11 to 100 | COc1c(Nc2ncc(C(F)(F)F)c(Nc3cccc4c3C(=O)NC4)n2)ccc(N2CCC(N3CCNCC3)CC2)c1F [Compound I-39, 7-((2-((3-fluoro-2-methoxy-4-(4-(piperazin-1-yl)piperidin-1-yl)phenyl)amino)-5-(trifluoromethyl)pyrimidin-4-yl)amino)isoindolin-1-one] |
| 11 to 100 | 11 to 100 | 11 to 100 | COc1c(Nc2ncc(C(F)(F)F)c(Nc3cccc4c3C(=O)NC4)n2)ccc(N2CCC(N3CCN(C)CC3)CC2)c1F [Compound I-45, 7-((2-((3-fluoro-2-methoxy-4-(4-(4-methylpiperazin-1-yl)piperidin-1-yl)phenyl)amino)-5-(trifluoromethyl)pyrimidin-4-yl)amino)isoindolin-1-one] |

The next lines start with the compound.

| SMILES | IC50 [1] [nM] | IC50 [2] [nM] | IC50 [3] [nM] |
| --- | --- | --- | --- |
| COc1cc2c(cc1Nc1ncc(C(F)(F)F)c(Nc3cccc4c3C(=O)NC4)n1)CNCC2 [Compound I-30, 7-((2-((6-methoxy-1,2,3,4-tetrahydroisoquinolin-7-yl)amino)-5-(trifluoromethyl)pyrimidin-4-yl)amino)isoindolin-1-one] | 0.1 to 10 | 0.1 to 10 | 101 to 1000 |
| CC(C)N1CCN(C2CCN(c3ccc(Nc4ncc(C(F)(F)F)c(Nc5cccc6c5C(=O)NC6)n4)c(OC(F)F)c3)CC2)CC1 [Compound I-32, 7-((2-((2-(difluoromethoxy)-4-(4-(4-isopropylpiperazin-1-yl)piperidin-1-yl)phenyl)amino)-5-(trifluoromethyl)pyrimidin-4-yl)amino)isoindolin-1-one] | 11 to 100 | 11 to 100 | 101 to 1000 |
| COc1c(Nc2ncc(C(F)(F)F)c(Nc3cccc4c3C(=O)NC4)n2)ccc(N2C[C@H]3CN(C)C[C@H]3C2)c1F [Compound I-35, 7-((2-((3-fluoro-2-methoxy-4-((3aR,6aS)-5-methylhexahydropyrrolo[3,4-c]pyrrol-2(1H)-yl)phenyl)amino)-5-(trifluoromethyl)pyrimidin-4-yl)amino)isoindolin-1-one] | 11 to 100 | 11 to 100 | 101 to 1000 |
| COc1c(Nc2ncc(C(F)(F)F)c(Nc3cccc4c3C(=O)NC4)n2)ccc(N2CCCN(C)CC2)c1F [Compound I-38, 7-((2-((3-fluoro-2-methoxy-4-(4-methyl-1,4-diazepan-1-yl)phenyl)amino)-5-(trifluoromethyl)pyrimidin-4-yl)amino)isoindolin-1-one] | 0.1 to 10 | 11 to 100 | 101 to 1000 |
| O=C1NCc2cccc(Nc3nc(Nc4ccc(N5CCC(N6CCNCC6)CC5)cc4OC(F)F)ncc3C(F)(F)F)c21 [Compound I-40, 7-((2-((2-(difluoromethoxy)-4-(4-(piperazin-1-yl)piperidin-1-yl)phenyl)amino)-5-(trifluoromethyl)pyrimidin-4-yl)amino)isoindolin-1-one] | 0.1 to 10 | 11 to 100 | 101 to 1000 |
| CN1CCN(c2ccc(Nc3ncc(Cl)c(Nc4cccc5c4C(=O)NC5)n3)c(OC(F)(F)F)c2)CC1 [Compound I-41, 7-((5-chloro-2-((4-(4-methylpiperazin-1-yl)-2-(trifluoromethoxy)phenyl)amino)pyrimidin-4-yl)amino)isoindolin-1-one] | 11 to 100 | 101 to 1000 | 101 to 1000 |
| O=C1NCc2cccc(Nc3nc(Nc4ccc(N5CCNCC5)cc4OC(F)F)ncc3F)c21 [Compound I-42, 7-((2-((2-(difluoromethoxy)-4-(piperazin-1-yl)phenyl)amino)-5-fluoropyrimidin-4-yl)amino)isoindolin-1-one] | 11 to 100 | 101 to 1000 | 101 to 1000 |
| COc1cc2c(cc1Nc1ncc(F)c(Nc3cccc4c3C(=O)NC4)n1)CCNC2 [Compound I-43, 7-((5-fluoro-2-((7-methoxy-1,2,3,4-tetrahydroisoquinolin-6-yl)amino)pyrimidin-4-yl)amino)isoindolin-1-one] | 11 to 100 | 101 to 1000 | 101 to 1000 |
| COc1cc2c(cc1Nc1ncc(C(F)(F)F)c(Nc3cccc4c3C(=O)NC4)n1)CCNCC2 [Compound I-44, 7-((2-((8-methoxy-2,3,4,5-tetrahydro-1H-benzo[d]azepin-7-yl)amino)-5-(trifluoromethyl)pyrimidin-4-yl)amino)isoindolin-1-one] | 0.1 to 10 | 101 to 1000 | 101 to 1000 |
| COc1cc2c(cc1Nc1ncc(C(F)(F)F)c(Nc3cccc4c3C(=O)NC4)n1)CNCC21CC1 [Compound I-46, 7-((2-((6′-methoxy-2′,3′-dihydro-1′H-spiro[cyclopropane-1,4′-isoquinolin]-7′-yl)amino)-5-(trifluoromethyl)pyrimidin-4-yl)amino)isoindolin-1-one] | 0.1 to 10 | 11 to 100 | > 1000 |
| COc1cc2c(cc1Nc1ncc(OC)c(Nc3cccc4c3C(=O)NC4)n1)CCNC2 [Compound I-47, 7-((5-methoxy-2-((7-methoxy-1,2,3,4-tetrahydroisoquinolin-6-yl)amino)pyrimidin-4-yl)amino)isoindolin-1-one] | 11 to 100 | 101 to 1000 | > 1000 |
